From patent publication US7642269B2, “Pyrrolo[3,2-B]pyridine derivatives and processes for the preparation thereof” (Yuhan Corporation, priority 2005, dated 2010)
pIC50: −log10 of the molar value. Where a name gives a salt, the structure may show the parent alone.

What follows are molecules tested against T1, H^+/K^+-ATPase (Sus scrofa, UniProt P19156) (assay: Inhibitory effects on proton pump (H^+/K^+-ATPase) activity, hog gastric vesicles). Conditions: K^+ stimulated H^+/K^+-ATPase activity, hog gastric vesicle, Pi measured at 620 nm.
T1 construct: used as an enzyme source of the in vitro enzyme reaction assay of proton pump; from tissue; host or cells: hog gastric fundic mucosa (membrane vesicles, lyophilized)
T1 sequence (P19156 2-1034 limits assumed): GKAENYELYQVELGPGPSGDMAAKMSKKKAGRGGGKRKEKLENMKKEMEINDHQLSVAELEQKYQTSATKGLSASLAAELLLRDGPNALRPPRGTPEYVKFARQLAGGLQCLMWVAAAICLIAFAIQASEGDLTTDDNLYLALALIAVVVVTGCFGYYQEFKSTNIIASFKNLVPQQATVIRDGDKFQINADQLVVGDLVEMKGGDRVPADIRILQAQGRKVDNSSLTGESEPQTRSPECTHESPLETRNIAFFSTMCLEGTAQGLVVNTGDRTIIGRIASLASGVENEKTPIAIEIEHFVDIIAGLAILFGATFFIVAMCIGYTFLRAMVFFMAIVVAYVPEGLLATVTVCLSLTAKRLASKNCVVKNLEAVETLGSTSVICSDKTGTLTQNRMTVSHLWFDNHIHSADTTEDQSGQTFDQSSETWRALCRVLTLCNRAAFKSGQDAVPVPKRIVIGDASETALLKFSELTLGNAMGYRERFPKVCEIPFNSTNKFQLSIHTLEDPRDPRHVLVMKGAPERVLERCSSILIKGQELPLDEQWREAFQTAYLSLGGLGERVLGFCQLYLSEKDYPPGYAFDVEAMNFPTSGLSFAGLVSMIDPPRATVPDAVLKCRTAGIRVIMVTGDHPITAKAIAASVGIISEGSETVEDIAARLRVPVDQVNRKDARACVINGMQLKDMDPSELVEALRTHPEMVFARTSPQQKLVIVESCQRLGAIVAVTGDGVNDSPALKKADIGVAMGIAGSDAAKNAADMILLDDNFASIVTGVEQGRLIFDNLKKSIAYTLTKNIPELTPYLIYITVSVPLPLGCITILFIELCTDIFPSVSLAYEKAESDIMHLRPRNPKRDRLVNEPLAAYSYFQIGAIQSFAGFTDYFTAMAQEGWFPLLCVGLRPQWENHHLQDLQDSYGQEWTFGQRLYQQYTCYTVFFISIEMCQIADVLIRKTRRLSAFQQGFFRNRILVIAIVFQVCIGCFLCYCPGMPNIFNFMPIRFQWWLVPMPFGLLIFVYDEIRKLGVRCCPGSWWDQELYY
T1 sequence (P18434 whole entry partner): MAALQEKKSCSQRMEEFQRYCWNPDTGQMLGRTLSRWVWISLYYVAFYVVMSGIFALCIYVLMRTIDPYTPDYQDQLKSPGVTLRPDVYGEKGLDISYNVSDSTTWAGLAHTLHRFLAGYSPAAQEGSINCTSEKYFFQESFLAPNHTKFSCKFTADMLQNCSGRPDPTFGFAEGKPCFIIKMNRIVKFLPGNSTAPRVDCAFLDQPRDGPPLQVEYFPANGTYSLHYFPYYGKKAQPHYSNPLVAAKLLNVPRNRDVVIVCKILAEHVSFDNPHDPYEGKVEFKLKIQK
Format: biochemical
Protocol: Preparation of Gastric Proton Pump Vesicles
The hog fundic regions containing parietal and peptic cells were scraped with slide-glass. The collected cells were suspended in 10 ml of 0.25M sucrose buffer and homogenized using a tight-fitting Teflon-glass homogenizer. The homogenate was centrifuged for 35 min at 8,000 rpm and the pellet was discarded. The supernatant was further centrifuged for 75 min at 25,000 rpm. The resulting pellets were re-suspended in the sucrose buffer (10 ml), and then the suspension was laid onto discontinuous density gradients consisting of 0.25M sucrose buffer and isolation medium containing 9% Ficoll (w/w). After being centrifuged for 3 hours and 15 minutes at 100,000×g, the material at the interface of sucrose buffer and Ficoll solution was collected and then centrifuged for 40 minutes at 100,000×g. The resulting pellets were re-suspended in 1 ml of 5 mM Hepes/Tris buffer (pH 6.1). This material was lyophilized and stored at −70° C. and used as an enzyme source of the in vitro enzyme reaction assay of proton pump.
1-2. Measurement of Inhibitory Effects on Proton Pump (H+/K+-ATPase) activity
The inhibitory effects of the compounds of the present invention against proton pump activity were evaluated in 96-well plate. In this assay, the K^+ specific H^+/K^+-ATPase activity was calculated based on the difference between the activity of H^+/K^+-ATPase activity with K^+ and without K^+ ion. In 96-well plate, 1% dimethylsulfoxide (DMSO) in buffer was added to negative and positive control groups and the diluted compounds of the present invention in buffer were added to test group. All assays were performed in 100 μl reaction volume at room temperature, and the hog gastric vesicle was kept in ice before use. At the beginning of the reaction, 10 μl of reaction buffer containing 1% DMSO was added to the negative and positive control groups and to each concentration of compounds in the test group. Then lyophilized vesicle in 5 mM Pipes/Tris buffer (pH 6.1) was pre-incubated in the presence of various concentrations of test compounds. After a 5 minute incubation, negative and positive buffers were respectively added to the previous reaction mixture. As the substrate, ATP was added to the reaction buffer, and incubated for 30 minutes at 37° C. Enzymatic activity was stopped by the addition of colorimetric reagent (2× malachite green, 1× ammonium molybdate, 1× polyvinyl alcohol, 2× H2O) and the amount of mono phosphate (Pi) in the reaction was measured at 620 nm using the micro plate reader (Genios Pro, TECAN). The difference between the Pi production with K^+ and without K^+ is taken as K^+ stimulated H^+/K^+-ATPase activity.

| Structure (SMILES) | pIC50 |
| --- | --- |
| COC(=O)Cn1c(C)c(C)c2nccc(OCc3ccc(Cl)cc3Cl)c21 [Example 138, 7-(2,4-dichlorobenzyloxy)-1-methoxycarbonylmethyl-2,3-dimethyl-1H-pyrrolo[3,2-b]pyridine hydrochloride] | 6.34 |
| CCCn1c(C)c(C)c2nccc(OCc3ccc(Br)cc3)c21 [Example 229, 7-(4-bromobenzyloxy)-2,3-dimethyl-1-propyl-1H-pyrrolo[3,2-b]pyridine hydrochloride] | 7.15 |
| COc1cccc(Cn2c(C)c(C)c3nccc(OCc4ccc(Cl)cc4)c32)c1 [Example 92, 7-(4-chlorobenzyloxy)-1-(3-methoxybenzyl)-2,3-dimethyl-1H-pyrrolo[3,2-b]pyridine hydrochloride] | 7.30 |
| Cc1c(C)n(Cc2cccc(Cl)c2)c2c(OCc3ccc(Br)cc3)ccnc12 [Example 226, 7-(4-bromobenzyloxy)-1-(3-chlorobenzyl)-2,3-dimethyl-1H-pyrrolo[3,2-b]pyridine hydrochloride] | 6.35 |
| CC(=O)OCCn1c(C)c(C)c2nccc(OCc3ccc(Cl)cc3)c21 [Example 85, 1-(2-acetoxyethyl)-7-(4-chlorobenzyloxy)-2,3-dimethyl-1H-pyrrolo[3,2-b]pyridine hydrochloride] | 6.77 |
| Cc1c(C)n(CC2CNC(=O)O2)c2c(OCc3ccc(Cl)cc3)ccnc12 (stereo not shown) [Example 81, 5-[7-(4-chlorobenzyloxy)-2,3-dimethyl-pyrrolo[3,2-b]pyridin-1-ylmethyl]-oxazolidin-2-one hydrochloride] | 5.90 |
| Cc1c(C)n(Cc2cccc(F)c2)c2c(OCc3ccc(Cl)cc3)ccnc12 [Example 93, 7-(4-chlorobenzyloxy)-1-(3-fluorobenzyl)-2,3-dimethyl-1H-pyrrolo[3,2-b]pyridine hydrochloride] | 7.30 |
| Cc1nc2c(C)c(C)n(Cc3ccccc3)c2c(OCc2ccc(F)cc2)c1C [Example 264, 1-benzyl-7-(4-fluorobenzyloxy)-2,3,5,6-tetramethyl-1H-pyrrolo[3,2-b]pyridine hydrochloride] | 5.51 |
| COCCn1c(C)c(C)c2nccc(OCc3ccc(F)cc3)c21 [Example 128, 7-(4-fluorobenzyloxy)-1-(2-methoxyethyl)-2,3-dimethyl-1H-pyrrolo[3,2-b]pyridine maleate] | 7.30 |
| Cc1c(C)n(Cc2ccc(F)cc2)c2c(OCc3ccc(Br)cc3)ccnc12 [Example 221, 7-(4-bromobenzyloxy)-1-(4-fluorobenzyl)-2,3-dimethyl-1H-pyrrolo[3,2-b]pyridine hydrochloride] | 6.74 |
| C=CCn1c(C)c(C)c2nccc(OCc3cccc(C)c3)c21 [Example 155, 1-allyl-2,3-dimethyl-7-(3-methylbenzyloxy)-1H-pyrrolo[3,2-b]pyridine hydrochloride] | 6.24 |
| Cc1cccc(COc2ccnc3c(C)c(C)n(Cc4ccc(Cl)cc4)c23)c1 [Example 147, 1-(4-chlorobenzyl)-2,3-dimethyl-7-(3-methylbenzyloxy)-1H-pyrrolo[3,2-b]pyridine hydrochloride] | 5.46 |

Further lines, results first:

| pIC50 | Structure (SMILES) |
| --- | --- |
| 5.97 | Cc1c(C)n(Cc2ccc3ccccc3c2)c2c(N3CCc4ccccc4C3)ccnc12 [Example 2, 1-(2-naphthylmethyl)-7-(1,2,3,4-tetrahydroisoquinolin-2-yl)-2,3-dimethyl-1H-pyrrolo[3,2-b]pyridine hydrochloride] |
| 5.90 | Cc1c(C)n(Cc2ccc3ccccc3c2)c2c(OCc3ccc(F)cc3)ccnc12 [Example 37, 7-(4-fluorobenzyloxy)-2,3-dimethyl-1-(naphthalen-2-ylmethyl)-1H-pyrrolo[3,2-b]pyridine hydrochloride] |
| 6.22 | Cc1ccc(Cn2c(C)c(C)c3nccc(OCc4ccc(C(F)(F)F)cc4)c32)cc1 [Example 200, 2,3-dimethyl-1-(4-methylbenzyl)-7-(4-trifluoromethylbenzyloxy)-1H-pyrrolo[3,2-b]pyridine hydrochloride] |
| 6.17 | COc1cccc(Cn2c(C)c(C)c3nccc(OCc4ccc(C(F)(F)F)cc4)c32)c1 [Example 201, 1-(3-methoxybenzyl)-2,3-dimethyl-7-(4-trifluoromethylbenzyloxy)-1H-pyrrolo[3,2-b]pyridine hydrochloride] |
| 6.62 | Cc1cccc(COc2ccnc3c(C)c(C)n(Cc4ccccc4)c23)c1 [Example 144, 1-benzyl-2,3-dimethyl-7-(3-methylbenzyloxy)-1H-pyrrolo[3,2-b]pyridine hydrochloride] |
| 6.68 | C=CCn1c(C)c(C)c2nccc(NCc3ccc(F)cc3)c21 [Example 254, N-(1-allyl-2,3-dimethyl-1H-pyrrolo[3,2-b]pyridin-7-yl)-4-fluorobenzylamine hydrochloride] |
| 5.50 | Cc1cccc(COc2ccnc3c(C)c(C)n(Cc4cccc(F)c4)c23)c1 [Example 146, 1-(3-fluorobenzyl)-2,3-dimethyl-7-(3-methylbenzyloxy)-1H-pyrrolo[3,2-b]pyridine hydrochloride] |
| 6.24 | COCCn1c(C)c(C)c2nccc(OCc3cccc(C)c3)c21 [Example 157, 1-(2-methoxyethyl)-2,3-dimethyl-7-(3-methylbenzyloxy)-1H-pyrrolo[3,2-b]pyridine hydrochloride] |
| 7.22 | Cc1c(C)n(Cc2cccc(F)c2)c2c(OCc3ccc(Br)cc3)ccnc12 [Example 222, 7-(4-bromobenzyloxy)-1-(3-fluorobenzyl)-2,3-dimethyl-1H-pyrrolo[3,2-b]pyridine hydrochloride] |
| 6.49 | Cc1c(C)n(CC2CC2)c2c(OCc3ccc4c(c3)OCO4)ccnc12 [Example 121, 7-(benzo[1,3]dioxol-5-ylmethoxy)-1-cyclopropylmethyl-2,3-dimethyl-1H-pyrrolo[3,2-b]pyridine hydrochloride] |
| 7.30 | COCCn1c(C)c(C)c2nccc(OCc3ccc(F)cc3)c21 [Example 125, 7-(4-fluorobenzyloxy)-1-(2-methoxyethyl)-2,3-dimethyl-1H-pyrrolo[3,2-b]pyridine p-toluenesulfonate] |
| 5.80 | Cc1c(C)n(Cc2ccc(C(C)(C)C)cc2)c2c(OCc3ccc(Cl)cc3)ccnc12 [Example 79, 1-(4-tert-butylbenzyl)-7-(4-chlorobenzyloxy)-2,3-dimethyl-1H-pyrrolo[3,2-b]pyridine hydrochloride] |
| 6.10 | CCn1c(C)c(C)c2nccc(N3CCc4ccccc4C3)c21 [Example 13, 1-ethyl-7-(1,2,3,4-tetrahydroisoquinolin-2-yl)-2,3-dimethyl-1H-pyrrolo[3,2-b]pyridine hydrochloride] |
| 6.24 | CCOc1ccccc1COc1ccnc2c(C)c(C)n(CC3CC3)c12 [Example 161, 1-cyclopropylmethyl-7-(2-ethoxybenzyloxy)-2,3-dimethyl-1H-pyrrolo[3,2-b]pyridine hydrochloride] |
| 5.33 | COCCn1c(C)c(C)c2nccc(OCc3cc(F)cc(F)c3)c21 [Example 181, 7-(3,5-difluorobenzyloxy)-1-(2-methoxyethyl)-2,3-dimethyl-1H-pyrrolo[3,2-b]pyridine hydrochloride] |
| 7.30 | COCCn1c(C)c(C)c2nccc(OCc3ccc(F)cc3)c21 [Example 124, 7-(4-fluorobenzyloxy)-1-(2-methoxyethyl)-2,3-dimethyl-1H-pyrrolo[3,2-b]pyridine benzenesulfonate] |
